# Source: PMC10244465, “Native American ataxia medicines rescue ataxia-linked mutant potassium channel activity via binding to the voltage sensing domain” (Nature Communications, 2023)
# Legend:
# Format in all cases: cell-based
# [1] = biological target: T1, Kv1.1-I182S, E192I, K195N (Kv1.1–3 M) (Homo sapiens, UniProt Q09470, E191I/I183S/K196N); test: TEVC of oocytes expressing Kv1.1-3M
# T1 construct: expressed in transfected cells; host or cells: Xenopus laevis oocytes
# Description: The functional data support a Kv1.1 gallic acid-binding site similar to that predicted by the MD simulation (Fig. 10f; Supplementary Movie 1).
# Wild-type and mutant Kv1 cDNAs were generated (Genscript, Piscataway, NJ) in the pTLNx expression vector. As previously described, we generated cRNA transcripts encoding human Kv1.1 (wild-type and mutant) and Kv1.2, by in vitro transcription using the mMessage mMachine kit (Thermo Fisher Scientific), after vector linearization, from cDNA sub-cloned into plasmids (pTLNx) incorporating Xenopus laevis β-globin 5’ and 3’ UTRs flanking the coding region to enhance translation and cRNA stability. We injected defolliculated stage V and VI Xenopus laevis oocytes (Xenoocyte, Dexter, MI, US) with Kv1 cRNAs (1–5 ng). We incubated the oocytes at 16 °C in ND96 oocyte storage solution containing penicillin and streptomycin, with daily washing, for 2 days prior to two-electrode voltage-clamp (TEVC) recording.
# (§1) We performed TEVC at room temperature using an OC-725C amplifier (Warner Instruments, Hamden, CT) and pClamp10 software (Molecular Devices, Sunnyvale, CA) 2 days after cRNA injection as described in the section above. For recording, oocytes we placed in a small-volume oocyte bath (Warner) and viewed with a dissection microscope. We sourced chemicals from Sigma. We studied effects of plant extracts and of compounds, solubilized directly in bath solution (in mM): 96 NaCl, 4 KCl, 1 MgCl2, 1 CaCl2, 10 HEPES (pH 7.6). […] We recorded currents in response to voltage pulses between −80 mV and +40 mV at 10 or 20 mV intervals from a holding potential of −80 mV, to yield current-voltage relationships and examine activation kinetics. To calculate the voltage dependence of activation (V0.5), tail currents were recorded at a voltage pulse of −50 mV immediately following prepulse voltages between −80 mV and +40 mV. We analyzed data using Clampfit (Molecular Devices) and Graphpad Prism software (GraphPad, San Diego, CA, USA), stating values as mean ± SEM. […]
# [2] = biological target: T2, Kv1.1/Kv1.1-L328V channels (Homo sapiens, UniProt Q09470, L328V); test: TEVC of oocytes co-injected with 50/50 wild-type/L328V Kv1.1 cRNA; settings: for effect on channel activity: compound 1 µM
# T2 construct: expressed in transfected cells; host or cells: Xenopus laevis oocytes co-injected with 50/50 wild-type/mutant cRNA
# Protocol: (§2) We next tested effects on channels generated by co-injection of 50/50 wild-type/mutant Kv1.1 cRNA. Strikingly, gallic acid (1 µM) was able to hyperpolarize (by −15.5 ± 0.5 mV; n = 4; P < 0.0001) the V0.5 act of Kv1.1/Kv1.1-E283K channels, restoring voltage dependence typical of wild-type Kv1.1 (Fig. 7a–c), also inducing a −14 ± 0.7 mV hyperpolarization (n = 4; P = 0.0005) in EM of oocytes expressing Kv1.1/Kv1.1-E283K (Fig. 7d). […] Because of this hint at activity improvement in L155P channels we also applied higher concentrations (10 and 100 µM) of gallic acid, which produced a more robust (−12.5 ± 0.6 mV and −14.1 ± 0.6 mV, respectively) hyperpolarization of Kv1.1/Kv1.1-L155P V0.5 act (Fig. 8b, c) and hyperpolarized EM by −14.0 ± 0.6 mV and −15.2 ± 0.7 mV, respectively (Fig. 8d).
# (§3) Wild-type and mutant Kv1 cDNAs were generated (Genscript, Piscataway, NJ) in the pTLNx expression vector. As previously described, we generated cRNA transcripts encoding human Kv1.1 (wild-type and mutant) and Kv1.2, by in vitro transcription using the mMessage mMachine kit (Thermo Fisher Scientific), after vector linearization, from cDNA sub-cloned into plasmids (pTLNx) incorporating Xenopus laevis β-globin 5’ and 3’ UTRs flanking the coding region to enhance translation and cRNA stability. […]
# as §1, with “above.” for “above. For recording, oocytes we placed in a small-volume oocyte bath (Warner) and viewed with a dissection microscope. We sourced chemicals from Sigma. We studied effects of plant extracts and of compounds, solubilized directly in bath solution (in mM): 96 NaCl, 4 KCl, 1 MgCl2, 1 CaCl2, 10 HEPES (pH 7.6).”
# [3] = biological target: T3, Kv1.1/Kv1.1-G311D channels (Homo sapiens, UniProt Q09470, G311D); test: TEVC of oocytes co-injected with 50/50 wild-type/G311D Kv1.1 cRNA; settings: for effect on channel activity: compound 1 µM
# T3 construct: expressed in transfected cells; host or cells: Xenopus laevis oocytes co-injected with 50/50 wild-type/mutant cRNA
# Protocol: as §2, §3
# as §1, with “above.” for “above. For recording, oocytes we placed in a small-volume oocyte bath (Warner) and viewed with a dissection microscope. We sourced chemicals from Sigma. We studied effects of plant extracts and of compounds, solubilized directly in bath solution (in mM): 96 NaCl, 4 KCl, 1 MgCl2, 1 CaCl2, 10 HEPES (pH 7.6).”
# [4] = biological target: T4, Kv1.1/Kv1.1-L155P channels (Homo sapiens, UniProt Q09470, L155P); test: TEVC of oocytes co-injected with 50/50 wild-type/L155P Kv1.1 cRNA
# T4 construct: expressed in transfected cells; host or cells: Xenopus laevis oocytes co-injected with 50/50 wild-type/L155P cRNA
# Description: As previously described[24], we generated cRNA transcripts encoding human Kv1.1 (wild-type and mutant) and Kv1.2, by in vitro transcription using the mMessage mMachine kit (Thermo Fisher Scientific), after vector linearization, from cDNA sub-cloned into plasmids (pTLNx) incorporating Xenopus laevis β-globin 5’ and 3’ UTRs flanking the coding region to enhance translation and cRNA stability. We injected defolliculated stage V and VI Xenopus laevis oocytes (Xenoocyte, Dexter, MI, US) with Kv1 cRNAs (1–5 ng). We incubated the oocytes at 16 °C in ND96 oocyte storage solution containing penicillin and streptomycin, with daily washing, for 2 days prior to two-electrode voltage-clamp (TEVC) recording.
# We performed TEVC at room temperature using an OC-725C amplifier (Warner Instruments, Hamden, CT) and pClamp10 software (Molecular Devices, Sunnyvale, CA) 2 days after cRNA injection as described in the section above. For recording, oocytes we placed in a small-volume oocyte bath (Warner) and viewed with a dissection microscope. We sourced chemicals from Sigma. We studied effects of plant extracts and of compounds, solubilized directly in bath solution (in mM): 96 NaCl, 4 KCl, 1 MgCl2, 1 CaCl2, 10 HEPES (pH 7.6). We introduced extracts or compounds into the oocyte recording bath by gravity perfusion at a constant flow of 1 ml per minute for 3 min prior to recording. Pipettes were of 1–2 MΩ resistance when filled with 3 M KCl. We recorded currents in response to voltage pulses between −80 mV and +40 mV at 10 or 20 mV intervals from a holding potential of −80 mV, to yield current-voltage relationships and examine activation kinetics. To calculate the voltage dependence of activation (V0.5), tail currents were recorded at a voltage pulse of −50 mV immediately following prepulse voltages between −80 mV and +40 mV. We analyzed data using Clampfit (Molecular Devices) and Graphpad Prism software (GraphPad, San Diego, CA, USA), stating values as mean ± SEM. We plotted raw or normalized tail currents vs. prepulse voltage and fitted with a single Boltzmann function:1 g=(A1−A2)/1+exp[V1/2−V/Vs]y+A2 where g is the normalized tail conductance, A1 is the initial value at -∞, A2 is the final value at +∞, V1/2 is the half-maximal voltage of activation and Vs the slope factor.
# [5] = biological target: T5, Kv1.1-V408A channels (Homo sapiens, UniProt Q09470, V408A); test: TEVC of oocytes expressing 100% Kv1.1-V408A; settings: compound 1 µM
# T5 construct: expressed in transfected cells; host or cells: Xenopus laevis oocytes
# Description: EA1 mutant G311D is in the S4-5 linker of Kv1.1 (Fig. 5a) and produces a 65% prepulse current reduction both in Kv1.1-G311D and in Kv1.1/Kv1.1-G311D channels[43],[44]; either channel type was minimally responsive to the plant extracts tested (Supplementary Figs. 3 and 4). EA1 mutant L328V (which is associated with tetany and hypomagnesemia) is located in the intracellular end of Kv1.1 S5 (Fig. 5a) and results in complete current loss in a dominant negative manner, i.e., Kv1.1-L328V and Kv1.1/Kv1.1-L328V channels are each nonfunctional. The traditional ataxia remedy plant extracts were unable to rescue Kv1.1-L328V or Kv1.1/Kv1.1-L328V function (Supplementary Figs. 5 and 6). EA1 mutant V408A is in the intracellular-proximal end of Kv1.1 S6 (Fig. 5a) and reduces current, speeds deactivation, and increases C-type inactivation of Kv1.1[46]. Here, Native American ataxia remedy extracts had relatively minor effects on Kv1.1-V408A activity, with nettle and Pacific ninebark (roots or leaves) inducing hyperpolarizing shifts in EM, and Pacific ninebark leaves inducing a negative shift in the voltage dependence of activation, although this was not quantifiable due to the very small tail currents (Supplementary Fig. 7). Effects of the extracts on Kv1.1/Kv1.1-V408A activity were also relatively minor (Supplementary Fig. 8). […]
# as §1, with “above.” for “above. For recording, oocytes we placed in a small-volume oocyte bath (Warner) and viewed with a dissection microscope. We sourced chemicals from Sigma. We studied effects of plant extracts and of compounds, solubilized directly in bath solution (in mM): 96 NaCl, 4 KCl, 1 MgCl2, 1 CaCl2, 10 HEPES (pH 7.6).”
# T4 sequence (Q09470 whole entry, stated change not applied): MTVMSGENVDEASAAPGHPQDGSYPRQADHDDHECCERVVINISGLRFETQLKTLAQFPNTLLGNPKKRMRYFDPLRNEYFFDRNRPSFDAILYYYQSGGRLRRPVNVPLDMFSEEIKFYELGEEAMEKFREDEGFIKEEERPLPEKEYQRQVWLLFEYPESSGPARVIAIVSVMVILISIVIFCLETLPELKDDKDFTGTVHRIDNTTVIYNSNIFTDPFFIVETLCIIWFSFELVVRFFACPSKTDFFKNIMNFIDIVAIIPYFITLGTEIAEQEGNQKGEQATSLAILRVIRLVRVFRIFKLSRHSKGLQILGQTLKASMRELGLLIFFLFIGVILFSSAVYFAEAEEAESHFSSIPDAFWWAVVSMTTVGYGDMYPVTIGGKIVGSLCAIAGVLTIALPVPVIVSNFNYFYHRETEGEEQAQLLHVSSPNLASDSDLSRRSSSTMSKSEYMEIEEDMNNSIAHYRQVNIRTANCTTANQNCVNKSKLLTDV
# T4 sequence (Q09470 whole entry L155P): as the sequence (Q09470 whole entry, stated change not applied) above, with L155P counted along it
# T2 sequence (Q09470 whole entry, stated change not applied): as the sequence (Q09470 whole entry, stated change not applied) above
# T2 sequence (Q09470 whole entry L328V): as the sequence (Q09470 whole entry, stated change not applied) above, with L328V counted along it
# T3 sequence (Q09470 whole entry, stated change not applied): as the sequence (Q09470 whole entry, stated change not applied) above
# T3 sequence (Q09470 whole entry G311D): as the sequence (Q09470 whole entry, stated change not applied) above, with G311D counted along it
# T1 sequence (Q09470 whole entry I183S/E191I/K196N): as the sequence (Q09470 whole entry, stated change not applied) above, with I183S, E191I, K196N counted along it
# T5 sequence (Q09470 whole entry V408A): as the sequence (Q09470 whole entry, stated change not applied) above, with V408A counted along it
compound,measurement,setting,value
O=C(O)c1cc(O)c(O)c(O)c1 [gallic acid],EC50,[1],345 ± 38 nM
same,EC50 for peak current augmentation,[1]; at −40 mV,not measurable
same,maximal peak current augmentation compared to Kv1.1,[1]; at −40 mV,reduced fivefold
same,effect on channel activity,[2],negligible
same,EM,[2]; in presence of 1 µM compound,-33.00 ± 1.09 mV
same,effect on channel activity,[3],negligible
same,EM,[3]; in presence of 1 µM compound,-47.00 ± 2.56 mV
same,hyperpolarization of EM,[4]; 1 µM,–9.1 ± 0.8 mV
same,shift in the voltage dependence of activation (V0.5 act),[4]; 1 µM,−6.8 ± 0.6 mV
same,hyperpolarization of EM,[4]; 10 µM,−14.0 ± 0.6 mV
same,shift in the voltage dependence of activation (V0.5 act),[4]; 10 µM,−12.5 ± 0.6 mV
same,hyperpolarization of EM,[4]; 100 µM,−15.2 ± 0.7 mV
same,shift in the voltage dependence of activation (V0.5 act),[4]; 100 µM,−14.1 ± 0.6 mV
same,EM,[4]; in presence of 1 µM compound,-45.00 ± 0.78 mV
same,Slope,[4]; in presence of 1 µM compound,4.84 ± 0.56 mV
same,V0.5 Normalized tail current,[4]; in presence of 1 µM compound,-30.59 ± 0.60 mV
same,EM,[4]; in presence of 10 µM compound,-48.89 ± 0.66 mV
same,Slope,[4]; in presence of 10 µM compound,4.76 ± 0.51 mV
same,V0.5 Normalized tail current,[4]; in presence of 10 µM compound,-36.38 ± 0.62 mV
same,EM,[4]; in presence of 100 µM compound,-50.11 ± 0.69 mV
same,Slope,[4]; in presence of 100 µM compound,4.68 ± 0.55 mV
same,V0.5 Normalized tail current,[4]; in presence of 100 µM compound,-37.93 ± 0.62 mV
same,effect on channel activity,[5],ineffective at rescuing activity
tannic acid,effect on channel activity,[2],minimal
same,effect on channel activity,[3],minimal
same,effect on channel activity,[4]; compound 1 µM,minimal
same,effect on channel activity,[5],subtle improvements in Kv1.1-V408A function but slowed its activation
